Measurements: US10738101B2, “Method for selecting odor-controlling substance” (Kao Corporation, priority 2015, dated 2020)

Experiments:
[1] = target: T1, OR5AN1 (Homo sapiens, UniProt Q8NGI8); test: Luciferase reporter gene assay, OR5AN1-expressing HEK293 cells; type: cell-based; settings: 0.3 μM to 100 μM, vs Mock cells, FIG. 3
T1 construct: expressed in transfected cells; host or cells: HEK293
T1 sequence (Q8NGI8 1-311): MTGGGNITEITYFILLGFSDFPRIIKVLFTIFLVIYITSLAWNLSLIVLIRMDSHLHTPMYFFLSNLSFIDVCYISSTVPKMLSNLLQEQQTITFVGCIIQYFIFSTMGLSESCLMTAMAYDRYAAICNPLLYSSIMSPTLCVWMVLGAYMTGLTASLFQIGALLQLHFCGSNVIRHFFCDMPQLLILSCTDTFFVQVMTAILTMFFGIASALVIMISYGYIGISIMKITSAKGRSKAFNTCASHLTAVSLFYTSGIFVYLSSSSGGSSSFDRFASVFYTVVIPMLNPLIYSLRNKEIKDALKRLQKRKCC
Source text: (§1) On the basis of sequence information registered in GenBank, genes respectively encoding 370 human olfactory receptors shown in Tables 1-1 and 1-2 and genes respectively encoding the human olfactory receptors OR5AN1, OR10G4 and OR9Q2 (respectively set forth in SEQ ID NOS: 1, 3 and 5) were cloned. Each of the genes was cloned by the PCR using human genomic DNA person (G1521: Promega) as a template. Each gene amplified by the PCR was incorporated into a pENTR vector (Invitrogen) in accordance with the instruction, and was recombined to NotI and AscI sites produced downstream from a Flag-Rho tag sequence on a pME18S vector by using NotI and AscI sites present on the pENTR vector.
(§2) In 1) of Example 1, HEK293 cells on which the 370 human olfactory receptors were respectively expressed were produced. A reaction solution having a composition shown in Table 2 was prepared and allowed to stand still in a clean bench for 15 minutes, and the resultant was added by 4.4 μL per well in a 384-well plate (BioCoat). Subsequently, the HEK293 cells (20×10^4 cells/cm^2) were seeded by 40 μL per well, and the resultant was cultured for 24 hours in an incubator kept at 37° C. and 5% CO2.
(§3) In 2) of Example 1 and Examples 2 and 3, HEK293 cells in which the human olfactory receptor OR5AN1, OR10G4, OR9Q2 or OR1A1 was expressed were produced. A reaction solution having a composition shown in Table 3 was prepared and allowed to stand still in a clean bench for 15 minutes, and the resultant was added by 10 μL per well in a 96-well plate (BioCoat). Subsequently, the HEK293 cells (3×10^5 cells/cm^2) were seeded by 90 μL per well, and the resultant was cultured for 24 hours in an incubator kept at 37° C. and 5% CO2. Cells obtained under conditions for not expressing the olfactory receptor (Mock) were also prepared to be used as a control, and were used similarly in an experiment.
(§4) The olfactory receptor expressed on the HEK293 cells increases the intracellular cAMP amount by activating adenylate cyclase in conjugation with intracellular Gαs. In the measurement of odor response in this study, luciferase reporter gene assay for monitoring the increase of the intracellular cAMP amount as a luminescence value derived from a firefly luciferase gene (fluc2P-CRE-hygro) was employed. Besides, a fused Renilla luciferase (hRluc-CMV) gene was simultaneously transferred downstream of the CMV promoter, so as to be used as an internal standard for correcting the gene transfer efficiency or an error in the number of cells. For measuring the activity of the luciferase, Dual-Glo(™) Luciferase Assay System (Promega) was used, and the measurement was performed in accordance with the operation instruction of the product. Under each of various stimulation conditions, a value fLuc/hRluc obtained by dividing a firefly luciferase-derived luminescence value by a Renilla luciferase-derived luminescence value was calculated. A value obtained by dividing a value fLuc/hRluc induced by stimulation with an odorous substance by a value fLuc/hRluc of a cell not stimulated with the odorous substance was obtained as fold increase, which was used as an index of the response intensity. A dose-response curve was analyzed using Graph Pad Prism.
(§5) The medium was removed from each of the cultures of the olfactory receptor expressing cells produced according to Reference Example 1, and an odorous substance (muscone, guaiacol or p-cresol) was added thereto. A DMEM medium (Nacalai) containing muscone or guaiacol was added to a 384-well plate containing the culture by 30 μL per well (to a final concentration of muscone of 100 μM and of guaiacol of 1 mM). Alternatively, a CD293 medium (Invitrogen) containing p-cresol was added to a 96-well plate containing the culture by 75 μL per well (to a final concentration of 1 mM). […]

[2] = test system: muscone odor; test: Sensory test of cross-adaptation, target odor muscone; type: in vivo, human; settings: panelists, test sample smelled before target sample, FIG. 6A
Description: (§6) The cross-adaptation effect induced by the odorous substance evaluated in Example 2 was estimated by a sensory test. A glass bottle (No. 11, manufactured by Hakuyo Glass Co., Ltd., capacity: 110 mL) was charged with a target odorous substance to be used as a target sample. As the target odorous substance, muscone, guaiacol or p-cresol was used. As the muscone, a cotton ball soaked with 1 mg of muscone was used. As the guaiacol and p-cresol, 1 mL of a mineral oil (Sigma-Aldrich) solution in a concentration of 10 ppm was used. In a similar manner, a glass bottle was charged with a test substance to be used as a test sample. As the test sample, 5 mg of an ethyl vanillin powder, or 1 mL of a mineral oil (Sigma-Aldrich) solution of p-cresyl acetate, p-cresyl isobutyrate or p-methyl quinoline prepared to a concentration of 1,000 ppm was used.
(§7) The sensory test was performed by a single blind method by five to eight panelists. The target sample was first presented to each panelist, who was caused to replay on the odor intensity. Next, the test sample was presented for 2 minutes or until the odor could not be perceived. Thereafter, the target sample was presented again, and the panelist was caused to replay on the odor intensity. This series of operations was defined as one set, and the sensory test was carried out with four sets per day per panelist set as the upper limit. A recess of at least 10 minutes or more was provided between the sets.
The panelist was caused to plot the estimated intensity of the target odor on a straight line of 9.5 cm with both ends respectively provided with criteria “No odor” and “Strong odor”. A distance (A) between the position of the target odor intensity plotted in the initial estimate and the end of “No odor”, and a distance (B) between the position of the target odor intensity plotted in the second estimate and the end of “No odor” were obtained, so as to calculate percentage odor intensity of the initial estimate [B/A*100−100]. […]

[3] = target: T2, OR1A1 (Homo sapiens, UniProt Q9P1Q5); test: Luciferase reporter gene assay, OR1A1-expressing HEK293 cells; type: cell-based; settings: 0.3 μM to 100 μM, vs Mock cells, FIG. 4
T2 construct: expressed in transfected cells; host or cells: HEK293
T2 sequence (Q9P1Q5 1-309): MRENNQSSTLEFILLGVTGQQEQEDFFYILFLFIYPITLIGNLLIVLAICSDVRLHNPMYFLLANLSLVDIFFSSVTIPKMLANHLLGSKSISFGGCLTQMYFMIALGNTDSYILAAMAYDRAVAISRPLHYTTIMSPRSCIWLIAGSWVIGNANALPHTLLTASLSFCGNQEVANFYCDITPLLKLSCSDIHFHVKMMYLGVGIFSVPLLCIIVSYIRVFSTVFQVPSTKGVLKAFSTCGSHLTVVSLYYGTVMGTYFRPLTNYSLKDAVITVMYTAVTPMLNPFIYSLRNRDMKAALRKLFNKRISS
Source text: as §1, §2
In 2) of Example 1 and Examples 2 and 3, HEK293 cells in which the human olfactory receptor OR5AN1, OR10G4, OR9Q2 or OR1A1 was expressed were produced. […]
The olfactory receptor expressed on the HEK293 cells increases the intracellular cAMP amount by activating adenylate cyclase in conjugation with intracellular Gαs. In the measurement of odor response in this study, luciferase reporter gene assay for monitoring the increase of the intracellular cAMP amount as a luminescence value derived from a firefly luciferase gene (fluc2P-CRE-hygro) was employed. […] Under each of various stimulation conditions, a value fLuc/hRluc obtained by dividing a firefly luciferase-derived luminescence value by a Renilla luciferase-derived luminescence value was calculated. […] A dose-response curve was analyzed using Graph Pad Prism. […]

[4] = target: T3, OR10G4 (Homo sapiens, UniProt Q8NGN3); test: Luciferase reporter gene assay, OR10G4-expressing HEK293 cells; type: cell-based; settings: for responsiveness of OR10G4 (fold increase): FIG. 5A, 5C
T3 construct: expressed in transfected cells; host or cells: HEK293
T3 sequence (Q8NGN3 1-311): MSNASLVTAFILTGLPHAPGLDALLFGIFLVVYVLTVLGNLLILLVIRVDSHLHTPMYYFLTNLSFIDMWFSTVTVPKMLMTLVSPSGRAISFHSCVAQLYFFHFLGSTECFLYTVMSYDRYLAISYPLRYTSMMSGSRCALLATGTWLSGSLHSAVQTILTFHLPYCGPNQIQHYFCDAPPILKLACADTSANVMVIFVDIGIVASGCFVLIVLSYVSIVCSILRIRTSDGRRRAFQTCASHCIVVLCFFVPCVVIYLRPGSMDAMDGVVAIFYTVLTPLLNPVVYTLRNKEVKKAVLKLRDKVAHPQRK
Source text: as §1, §2, §3
as §4, with “For measuring the activity of the luciferase, Dual-Glo(™) Luciferase Assay System (Promega) was used, and the measurement was performed in accordance with the operation instruction of the product.” left out, “A value obtained by dividing a value fLuc/hRluc induced by stimulation with an odorous substance by a value fLuc/hRluc of a cell not stimulated with the odorous substance was obtained as fold increase, which was used as an index of the response intensity.” left out, “Prism. […]” for “Prism.”

[5] = test system: odor of guaiacol; test: Sensory test of cross-adaptation, target odor guaiacol; type: in vivo, human; settings: panelists, test sample smelled before target sample, FIG. 6B
Description: as §6
as §7, with “A recess of at least 10 minutes or more was provided between the sets.” left out

[6] = target: T4, OR9Q2 (Homo sapiens, UniProt Q8NGE9); test: Luciferase reporter gene assay, OR9Q2-expressing HEK293 cells; type: cell-based; settings: for responsiveness of OR9Q2 (fold increase): FIG. 2, 5B, 5C
T4 construct: expressed in transfected cells; host or cells: HEK293
T4 sequence (Q8NGE9 1-314): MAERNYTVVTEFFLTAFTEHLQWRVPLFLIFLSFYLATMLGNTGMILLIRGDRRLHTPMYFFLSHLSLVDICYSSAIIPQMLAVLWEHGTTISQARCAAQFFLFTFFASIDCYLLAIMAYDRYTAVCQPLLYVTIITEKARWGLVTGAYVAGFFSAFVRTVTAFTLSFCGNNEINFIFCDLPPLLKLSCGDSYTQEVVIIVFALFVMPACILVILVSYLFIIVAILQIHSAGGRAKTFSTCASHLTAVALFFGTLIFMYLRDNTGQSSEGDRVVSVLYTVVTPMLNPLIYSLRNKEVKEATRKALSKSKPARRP
Source text: as §1, §2, §3, §4, §5

[7] = test system: odor of p-cresol; test: Sensory test of cross-adaptation, target odor p-cresol; type: in vivo, human; settings: panelists, test sample smelled before target sample, FIG. 6C
Description: as §6, §7
The panelist was caused to plot the estimated intensity of the target odor on a straight line of 9.5 cm with both ends respectively provided with criteria “No odor” and “Strong odor”. A distance (A) between the position of the target odor intensity plotted in the initial estimate and the end of “No odor”, and a distance (B) between the position of the target odor intensity plotted in the second estimate and the end of “No odor” were obtained, so as to calculate percentage odor intensity of the initial estimate [B/A*100−100]. As this value is smaller, the intensity of the target odor perceived in the second estimate is suppressed stronger as compared with that in the initial estimate, namely, stronger cross-adaptation is induced. If this value is −100%, it means that the target odor was not perceived at all in the second estimate.

With `O=C1CCCCC=CCCCCCCCCCO1` [Ambrettolide, 17-oxacycloheptadec-6-en-1-one] the “activation of OR5AN1 response (fold increase)” value [1] was “did not induce the response” and the “cross-adaptation of muscone odor induced by test substance” value (“cross-adaptation of muscone odor induced” for short) [2] was “did not induce the cross-adaptation”.

`CC/C=C\CCO` [Cis-3-hexenol] was tested, and the “activation of OR5AN1 response (fold increase)” value [1] was “did not induce the response”, the “activation of OR1A1 response (fold increase)” value [3] was “activated” and the “cross-adaptation of muscone odor induced” value [2] was “did not induce the cross-adaptation”.

For `O=C1CCCCCCCCCCCCCCO1` [Exaltolide (R), 16-oxacyclohexadecan-1-one], the “activation of OR5AN1 response (fold increase)” value [1] was “activating the response”.

With `O=C1CCCCCCC=CCCCCCCC1` [Globanone, cyclohexadec-8-en-1-one] the “activation of OR5AN1 response (fold increase)” value [1] was “activating the response”.

`CC(C)(O)CCCC1=CCC(C=O)CC1` [Lyral (R), 4-(4-hydroxy-4-methyl-pentyl)-cyclohex-3-enecarbaldehyde] was tested, and the “activation of OR5AN1 response (fold increase)” value [1] was “did not induce the response”.

In the case of `CC1CC=CCCCCCCCCCC(=O)C1` (centres unmarked) [Muscenone delta, 3-methyl-5-cyclopentadecen-1-one], the “activation of OR5AN1 response (fold increase)” value [1] is reported as “activating the response”.

`Cc1c([N+](=O)[O-])c(C)c([N+](=O)[O-])c(C(C)(C)C)c1[N+](=O)[O-]` [Musk xylol, 1-tert-butyl-3,5-dimethyl-2,4,6-trinitrobenzene] was tested, and the “activation of OR5AN1 response (fold increase)” value [1] was “activating the response”.

For `CCOc1cc(C=O)ccc1O` [ethyl vanillin, 3-ethoxy-4-hydroxybenzaldehyde], the “responsiveness of OR10G4 (fold increase)” value [4] was “had responsiveness” and the “cross-adaptation of guaiacol odor induced by test substance” value [5] was “induced”.

With `COc1ccccc1O` [guaiacol, 2-methoxyphenol] the “responsiveness of OR10G4 (fold increase)” value [4] was “had responsiveness” and the “responsiveness of OR10G4 among 370 olfactory receptors (response intensity, fold increase)” value ([4]; screen of 370 human olfactory receptors, guaiacol 1 mM, FIG. 1) was “highest responsiveness”.

In the case of `Cc1ccc(O)cc1` [p-cresol, p-Cresol], the “responsiveness of OR9Q2 (fold increase)” value [6] is reported as “have responsiveness”, the “concentration dependency of OR9Q2 response” value ([6]; different concentrations, FIG. 2) is reported as “showed response to p-cresol dependently on the concentration” and the “responsiveness of OR9Q2 among 370 olfactory receptors (response intensity, fold increase)” value ([6]; screen of 370 human olfactory receptors, p-cresol 1 mM, FIG. 1) is reported as “highest responsiveness”.

`CC(=O)Oc1ccc(C)cc1` [p-cresyl acetate, (4-methylphenyl)acetate] was tested, and the “cross-adaptation of p-cresol odor induced by test substance” value [7] was “induced” and the “responsiveness of OR9Q2 (fold increase)” value [6] was “have responsiveness”.

With `Cc1ccc(OC(=O)C(C)C)cc1` [p-cresyl isobutyrate, (4-methylphenyl)2-methylpropanoate] the “cross-adaptation of p-cresol odor induced by test substance” value [7] was “induced” and the “responsiveness of OR9Q2 (fold increase)” value [6] was “have responsiveness”.

For `Cc1ccc2ncccc2c1` [p-methyl quinoline, 6-methyl quinoline], the “cross-adaptation of p-cresol odor induced by test substance” value [7] was “induced” and the “responsiveness of OR9Q2 (fold increase)” value [6] was “have responsiveness”.

With `OCCc1ccccc1` [phenyl ethyl alcohol (PEA), 2-phenylethanol] the “activation of OR5AN1 response (fold increase)” value [1] was “did not induce the response”, the “activation of OR1A1 response (fold increase)” value [3] was “activated” and the “cross-adaptation of muscone odor induced” value [2] was “did not induce the cross-adaptation”.
